According to patent US20240057599A1, “METHODS FOR IMPROVING FRUIT QUALITY” (The State of Israel, Ministry of Agriculture & Rural …, priority 2021, published 2024):

Tests used:
Format in all cases: in vivo
[1] = test system: White (Sifra) potato tubers; assay: Lignin production at the cut (Calcofluor white fluorescence); conditions: 8 mM dip, one-week post-treatment, vs control
Procedure: White (Sifra) potato tubers were dipped in water or 8 mM Phe for 1 min, and dried. The tubers were stored at 20° C. for 2 days. Each tuber was cut (2 cm length, 2 cm deep, 2 mm wide). One week later the curing of the cut was documented.

[2] = test system: grapes (Skarlota); assay: Preharvest spray, red coloration in grapes
Source text: FIG. 28 includes a vertical bar graph showing the effect of preharvest spray treatment on red coloration (represented as index 0-5) in grapes (Skarlota). […] Further, improvement of fruit coloration was also shown in grapes (FIG. 28).

[3] = test system: Muscat grapes and Petit Verdot grapes; assay: Sensory analysis and Brix of grapes and juice after preharvest treatment; conditions: for Brix values of grapes and/or juice: 8 mM preharvest, vs control
Procedure: Grapes—Muscat grapes and Petit Verdot grapes were treated with 8 mM phenylalanine for: (i) 1 week or 2 weeks; and (ii) 1 week, 2 weeks, or 3 weeks, before harvest, and their combination, respectively. Sensory analysis by a panel of 20 tasters was performed, for the juice extracted from the fruits, and Brix, and % acidity (calibrated according to citric acid) values were also determined. In the case of muscat grapes, intact fruits were also analyzed (e.g., by the panel, Brix, and % acidity).

[4] = test system: apple fruits (Jonathan); assay: Red coloration of apple fruits after preharvest treatment; conditions: 8 mM, 1 or 2 weeks preharvest
Procedure: (§1) Mango or apple trees were treated 1 week or 2 weeks pre-harvest with either 8 mM of phenylalanine or with 0.2% prohydrojasmon ('blush'). Fruits were harvested from the external area of the tree, wherein fruits are exposed to the sunlight (photon flux of 1,500±200 μmol·m^-2 sec^-1). After harvest: (a) mango fruits were stored for 3 weeks at 12° C., and for another week at 22° C. (e.g., shelf life); and (b) apple fruits were stored for 3 months at 0° C., and for another week at 22° C. (e.g., shelf life). Surface area of the red color was evaluated as percentage, and red intensity was evaluated on a scale of 0-5. Each mango fruit was assessed for percentage of red surface area on fruit for each treatment at different time points (harvest, after cold storage at 12° C. and after shelf life at 22° C.). Similarly, red intensity was evaluated for each mango fruit using a visual rating scale, where 0=no red color, 1=faint red color, and 5=very intense red color. Fifty fruit were evaluated per treatment. The skin color (hue) of 15 mango fruit was measured for each treatment using a CR-400/410 Chromometer (Konicka Minolta, Osaka, Japan) on the equatorial line of each fruit at the […] point. […] Chlorophyll, anthocyanin, and flavonoid content were measured by the Multiplex III fluorescence detector (Force A, Orsay, France), which consists of 12 fluorescence signals. […]

[5] = test system: mango fruits; assay: Brix values of mango fruits and juice
Procedure: (§2) Mango—unripe Mango fruits were harvested and dipped in 4-8 mM phenylalanine for a period of 30 seconds. Fruits were stored at 22° C. until ripening (Days 11-15), wherein sensory analysis by a panel of 20 tasters was performed. Further, Brix, and % acidity (calibrated according to citric acid), and firmness (by Newton units) values were determined in 5 different fruits.

[6] = test system: mango fruits; assay: Sensory analysis by a panel of 20 tasters, mango fruits and juice; conditions: for quality of juice extracted from mango fruits: preharvest application, 2020
Procedure: as §2

[7] = test system: Apple (Starking Delicious) fruits; assay: Preharvest spray, red coloration and TSS in apple
Procedure: FIGS. 27A-27D include vertical bar graphs showing the effect of preharvest spray treatment on red coloration and TSS in Apple (Starking Delicious) fruits. […] In 27D, TSS was evaluated at time 0 (TO), after cold storage (CS), and after time at shelf conditions (e.g., shelf-life (SL)).
(§3) Further, improvement of fruit coloration was also shown in grapes (FIG. 28).

[8] = test system: Starking and Anna apples; assay: Enzymatic browning of sliced apple fruits after preharvest treatment; conditions: 0.12%
Source text: FIGS. 29A-29E include micrographs showing the effect of preharvest treatment on decay parameters in Starking (29A-29B) and Anna (29C-29E) apples. In control fruits, enzymatic browning (i.e., oxidation) was highly evident (29A, and 29C).
Further, the inventors have examined the effect of preharvest treatment with phenylalanine on enzymatic browning, i.e., oxidation, in a fruit.

[9] = test system: Mango (Tali) fruits; assay: Aroma-associated VOC levels in dipped mango fruits; conditions: pulp; dipped in 8 mM; 11 days at 22° C.; vs non-treated
Procedure: FIGS. 30A-30G include vertical bar graphs showing that a […] treatment of mango fruits with 8 mM phenylalanine increases the levels of aroma-associated VOCs. Mango (Tali) fruits were dipped in 8 mM phenylalanine and after 11 days of storage at 22° C. the profile of volatiles in the fruit […] was examined. Concentration of the following volatile aroma substances was examined (presented as μg/gFW): (30A) α-Pinene; (30B) 3-Carene; (30C) D-Limonene; (30D) Gurjunene; (30E) α-Terpinolene; (30F) α-Phellandrene; and (30G) Caryophyllene. Further, the inventors have shown that postharvest treatment as disclosed herein improves fruit aroma. The investors have dipped Mango fruits, and 11 days after storage at 22° C., the levels of aroma-associated VOCs were determined. Indeed, postharvest treatment with an effective amount of phenylalanine induced a significant increase in the levels of all tested VOCs (FIG. 30).

[10] = test system: apple fruits (Jonathan); assay: Sensory analysis and Brix of apple fruits and juice after preharvest treatment
Procedure: Apple—Apple trees were treated with: 8 mM phenylalanine 1 week or 2 weeks before harvest; or with 0.2 prohydrojasmon (also known as ‘blush’). Fruits were harvested from the external area of the tree. After harvest, fruits were stored for 3 months at 0° C., wherein sensory analysis by a panel of 20 tasters was performed, for both slices fruit and for juice extracted therefrom. Brix values were also determined.

[11] = test system: mango fruits; assay: Red coloration of mango fruits after preharvest treatment; conditions: Shelly and Kent; 8 mM, 1 or 2 weeks preharvest
Procedure: as §1

[12] = test system: Red (Memphis) and white (Sifra) potato tubers; assay: Cut curing in potato tuber; conditions: 8 mM dip; for weight loss after cutting: statistically significant 14 days post-treatment
Procedure: (§4) Red (Memphis) and white (Sifra) potato tubers were dipped in water or 8 mM Phe for 1 min, and dried. The tubers were stored at 20° C. for 2 days. Each tuber was cut (2 cm length, 2 cm deep, 2 mm wide) in 3 spots. One week and 2 weeks later the curing of the cut was evaluated on a scale of 0-3, and the weight loss was measured.
Red (Memphis) and white (Sifra) potato tubers were dipped in water or 8 mM Phe for 1 min, and dried. The tubers were stored at 20° C. for 2 days. Each tuber was cut (2 cm length, 2 cm deep, 2 mm wide). Two weeks later the superficial and internal curing were documented.

[13] = test system: Mango fruits (Tali and Shelly); assay: ROS accumulation in injured mango fruits; conditions: postharvest 8 mM; injured fruit; vs non-treated injured fruit
Procedure: FIGS. 31A-31C include a fluorescent micrograph (31A) and vertical bar graphs showing that postharvest treatment of Mango fruits (Tali and Shelly) with 8 mM phenylalanine reduces accumulation of reactive oxygen species (ROS) in the peel (31B) and pulp (31C) of treated injured fruits compared to control injured fruit (non-treated). […] (31A) Visualization conducted 20 minutes post induced injury. (31B-31C) ROS quantification 7 days post induced injury.
Further, the inventors have shown that postharvest treatment as disclosed herein reduces ROS (reactive oxygen species) accumulation in fruit injured postharvest (FIG. 31).

[14] = test system: Red (Memphis) and white (Sifra) potato tubers; assay: Scratch curing in potato tuber; conditions: for scratch curing (scale of 0-3): 8 mM dip 1 min
Procedure: as §4, with “was scratched” for “was cut”, “length, and 1” for “length, 2”, “cm” for “cm deep, 2 mm”, “the scratch was evaluated on a scale of 0-3, the recovery of the red color” for “the cut”

[15] = test system: Mango (Shelly) fruits; assay: Preharvest spray, red coloration and TSS in mango
Source text: FIGS. 26A-26C include vertical bar graphs showing the effect of preharvest spray treatment on red coloration and TSS in Mango (Shelly) fruits. Red color surface (%; 26A), red color intensity (26B) and TSS (% Brix; 26C) were examined under preharvest treatments with 0.01%, 0.06%, […], or 0.24% phenylalanine (Phe).
as §3

[16] = 0.12% (~6 mM) preharvest spray, compared to 0.01%
[17] = white Muscat grapes, preharvest application, 2020
[18] = preharvest, 0.06% by weight (~3 mM) or more

Compound: N[C@@H](Cc1ccccc1)C(=O)O [phenylalanine]
- lignin production (fluorescent intensity) [1]: increased lignin production
- red coloration ([2]; 0.01% (~0.5 mM) preharvest): ineffective
- red color index (0-5) [2, 16]: substantially more effective
- Brix values of grapes and/or juice ([3]; Muscat grapes): increased Brix values
- Brix values of grapes and/or juice ([3]; Petit Verdot grapes): increased Brix values
- quality of juice extracted from grapes ([3]; Petit Verdot grapes, preharvest application, 2020): quality improvement
- flavor of grapes [3, 17]: flavor improvement
- quality of juice extracted from grapes [3, 17]: quality improvement
- formation of red coloration in apple fruits [4]: effectively induce the formation of red coloration
- Brix values in juice extracted from mango fruits ([5]; juice of treated mango fruits vs control (FIGS. 8, 13)): greater than the control
- Brix values in mango fruits ([5]; treated mango fruits vs control (FIGS. 1-3, 7, 12)): greater than the control
- quality of juice extracted from mango fruits ([6]; Kent): quality improvement
- quality of juice extracted from mango fruits ([6]; Shelly): quality improvement
- sensory quality of mango fruits (sweeter, less acidic, better aroma, firmness, general appreciation) ([6]; tasters' panel, postharvest dip 4-8 mM (FIGS. 1-3) or preharvest application (FIGS. 7, 12), vs control): better quality
- TSS (% Brix) ([7]; 0.01% preharvest spray): comparable to negative control
- red coloration (red color surface %, red color intensity) ([7]; 0.01% preharvest spray): comparable to negative control
- TSS (% Brix) [7, 16]: substantially more effective
- red coloration (red color surface %, red color intensity) [7, 16]: substantially more effective
- enzymatic browning (oxidation) ([8]; Anna apples, 2 weeks or 4 weeks preharvest): effective in reducing enzymatic browning
- enzymatic browning (oxidation) ([8]; Starking apples, 2 weeks preharvest): effective in reducing enzymatic browning
- level of 3-Carene [9]: significantly elevated
- level of Caryophyllene [9]: significantly elevated
- level of D-Limonene [9]: significantly elevated
- level of Gurjunene [9]: significantly elevated
- level of α-Phellandrene [9]: significantly elevated
- level of α-Pinene [9]: significantly elevated
- level of α-Terpinolene [9]: significantly elevated
- Brix values in apple fruits ([10]; 8 mM preharvest, vs control): greater than the control
- sensory quality of apple fruits and/or juice (sweeter, less acidic, better aroma) ([10]; tasters' panel, 8 mM 1 or 2 weeks preharvest, after 3 months at 0° C.): better quality
- texture of apple fruits ([10]; tasters' panel, 8 mM preharvest): better texture
- formation of red coloration in mango fruits [11]: effectively induce the formation of red coloration
- cut curing (scale of 0-3) ([12]; Memphis, 14 days): to a less extent
- weight loss after cutting ([12]; Memphis): reduced
- internal curing of the cut ([12]; Memphis, two weeks later): improved compared to control
- cut curing (scale of 0-3) ([12]; Sifra, 7 and 14 days post-treatment, vs control): improved significantly
- weight loss after cutting ([12]; Sifra): reduced
- superficial and internal curing of the cut ([12]; Sifra, two weeks later): improved compared to control
- ROS accumulation in the peel [13]: substantially less ROS
- ROS accumulation in the pulp [13]: substantially less ROS
- weight loss after scratching ([14]; Memphis (red), 8 mM dip): reduced
- scratch curing (scale of 0-3) ([14]; Memphis (red), 7 and 14 days post-treatment): significantly improved
- color curing, recovery of the red color (scale of 0-3) ([14]; Memphis (red), 8 mM dip, 7 and 14 days post-treatment): significantly improved
- scratch curing (scale of 0-3) ([14]; Sifra (white), 7 and 14 days post-treatment): significantly improved
- weight loss after scratching ([14]; Sifra (white), 8 mM dip, statistically significant): reduced
- red coloration (red color surface %, red color intensity) ([15]; 0.01% (~0.5 mM) preharvest spray): ineffective
- TSS (% Brix) ([15]; 0.01% preharvest spray): no contribution
- TSS [15, 18]: substantially improved
- fruit coloration [15, 18]: substantially improved
